# Experimental data published in patent US20220226321A1, “INHIBITOR OF MNK FOR THE TREATMENT OF NEUROPATHIC PAIN” (Board of Regents, The University of Texas System, priority 2019, published 2022).
# Read-outs that look alike come from different tables or passages of the source.
# System: Nav1.8-positive nociceptors
# Type: in vivo, mouse
# [1] = input transcriptome of whole DRG, day 10
compound,measurement,setting,value
CC(=O)O[C@H]1C(=O)[C@@]2(C)[C@H]([C@H](OC(=O)c3ccccc3)[C@]3(O)C[C@H](OC(=O)[C@H](O)[C@@H](NC(=O)c4ccccc4)c4ccccc4)C(C)=C1C3(C)C)[C@]1(OC(C)=O)CO[C@@H]1C[C@@H]2O [paclitaxel],Log2FC Mxd3,Nav1.8-TRAP after paclitaxel,1.905
same,Log2FC Ndufa4,Nav1.8-TRAP after paclitaxel,2.041
same,Log2FC Ndufa8,Nav1.8-TRAP after paclitaxel,1.699
same,Log2FC Ndufaf7,Nav1.8-TRAP after paclitaxel,2.358
same,Log2FC Ndufs8,Nav1.8-TRAP after paclitaxel,2.837
same,Log2FC Nedd9,Nav1.8-TRAP after paclitaxel,3.023
same,Log2FC Ngfr,Nav1.8-TRAP after paclitaxel,1.805
same,Log2FC Nipsna p3b,Nav1.8-TRAP after paclitaxel,2.057
same,Log2FC Nme2,Nav1.8-TRAP after paclitaxel,3.66
same,Log2FC Ntrk1,Nav1.8-TRAP after paclitaxel,2.2
same,Log2FC Omg,Nav1.8-TRAP after paclitaxel,2.194
same,Log2FC PIpp1,Nav1.8-TRAP after paclitaxel,2.874
same,Log2FC Pafah2,Nav1.8-TRAP after paclitaxel,2.283
same,Log2FC Pcbd2,Nav1.8-TRAP after paclitaxel,2.687
same,Log2FC Pcdhb9,Nav1.8-TRAP after paclitaxel,2.519
same,Log2FC Pex11b,Nav1.8-TRAP after paclitaxel,3.628
same,Log2FC Pgrmc2,Nav1.8-TRAP after paclitaxel,1.76
same,Log2FC Phpt1,Nav1.8-TRAP after paclitaxel,1.814
same,Log2FC Pnrc2,Nav1.8-TRAP after paclitaxel,1.668
same,Log2FC Polr1c,Nav1.8-TRAP after paclitaxel,2.731
same,Log2FC Polr2j,Nav1.8-TRAP after paclitaxel,3.518
same,Log2FC Ppdpf,Nav1.8-TRAP after paclitaxel,2.038
same,Log2FC Ppp1ca,Nav1.8-TRAP after paclitaxel,2.094
same,Log2FC Praf2,Nav1.8-TRAP after paclitaxel,2.335
same,Log2FC Prdx5,Nav1.8-TRAP after paclitaxel,2.174
same,Log2FC Prg4,Nav1.8-TRAP after paclitaxel,3.247
same,Log2FC Prkrir,Nav1.8-TRAP after paclitaxel,2.096
same,Log2FC Prkx,Nav1.8-TRAP after paclitaxel,2.201
same,Log2FC Prm1,Nav1.8-TRAP after paclitaxel,1.732
same,Log2FC Psma2,Nav1.8-TRAP after paclitaxel,2.07
same,Log2FC Ptdss1,Nav1.8-TRAP after paclitaxel,1.681
same,Log2FC Ptp4a3,Nav1.8-TRAP after paclitaxel,2.248
same,Log2FC Ptprf,Nav1.8-TRAP after paclitaxel,1.742
same,Log2FC Pxdc1,Nav1.8-TRAP after paclitaxel,3.578
same,Log2FC Rad9a,Nav1.8-TRAP after paclitaxel,1.786
same,Log2FC Rbc1,Nav1.8-TRAP after paclitaxel,1.841
same,Log2FC Rcn3,Nav1.8-TRAP after paclitaxel,2.085
same,Log2FC Rd54l,Nav1.8-TRAP after paclitaxel,4.965
same,Log2FC Rft1,Nav1.8-TRAP after paclitaxel,3.183
same,Log2FC Rho,Nav1.8-TRAP after paclitaxel,5.352
same,Log2FC Rnase4,Nav1.8-TRAP after paclitaxel,2.356
same,Log2FC Rnh1,Nav1.8-TRAP after paclitaxel,2.827
same,Log2FC Romo1,Nav1.8-TRAP after paclitaxel,2.002
same,Log2FC Rpl10a,Nav1.8-TRAP after paclitaxel,2.764
same,Log2FC Rpl23a,Nav1.8-TRAP after paclitaxel,1.728
same,Log2FC Rpl37,Nav1.8-TRAP after paclitaxel,2.314
same,Log2FC Rpl39,Nav1.8-TRAP after paclitaxel,2.279
same,Log2FC Rprm,Nav1.8-TRAP after paclitaxel,1.703
same,Log2FC Rps2,Nav1.8-TRAP after paclitaxel,2.442
same,Log2FC Rps29,Nav1.8-TRAP after paclitaxel,2.994
same,Log2FC Rraga,Nav1.8-TRAP after paclitaxel,1.845
same,Log2FC Rtn4rl1,Nav1.8-TRAP after paclitaxel,2.407
same,Log2FC Rwdd1,Nav1.8-TRAP after paclitaxel,2.511
same,Log2FC Sag,Nav1.8-TRAP after paclitaxel,1.948
same,Log2FC Scpep1,Nav1.8-TRAP after paclitaxel,2.923
same,Log2FC Sdhb,Nav1.8-TRAP after paclitaxel,3.236
same,Log2FC Sec14I1,Nav1.8-TRAP after paclitaxel,2.129
same,Log2FC Serp2,Nav1.8-TRAP after paclitaxel,2.805
same,Log2FC Serpina3n,Nav1.8-TRAP after paclitaxel,2.549
same,Log2FC Serping1,Nav1.8-TRAP after paclitaxel,3.002
same,Log2FC Shisa5,Nav1.8-TRAP after paclitaxel,2.137
same,Log2FC Slc3a2,Nav1.8-TRAP after paclitaxel,2.841
same,Log2FC Slc6a15,Nav1.8-TRAP after paclitaxel,1.979
same,Log2FC Slc25a3,Nav1.8-TRAP after paclitaxel,2.641
same,Log2FC Slc30a6,Nav1.8-TRAP after paclitaxel,2.809
same,Log2FC Slc48a1,Nav1.8-TRAP after paclitaxel,1.977
same,Log2FC Smdt1,Nav1.8-TRAP after paclitaxel,2.016
same,Log2FC Smug1,Nav1.8-TRAP after paclitaxel,4.754
same,Log2FC Snrpg,Nav1.8-TRAP after paclitaxel,1.657
same,Log2FC Soat2,Nav1.8-TRAP after paclitaxel,4.066
same,Log2FC Sod1,Nav1.8-TRAP after paclitaxel,1.77
same,Log2FC Sorbs1,Nav1.8-TRAP after paclitaxel,2.942
same,Log2FC Spink10,Nav1.8-TRAP after paclitaxel,3.169
same,Log2FC Synb,Nav1.8-TRAP after paclitaxel,3.1
same,Log2FC Syngr3,Nav1.8-TRAP after paclitaxel,1.701
same,Log2FC Tagln3,Nav1.8-TRAP after paclitaxel,2.101
same,Log2FC Tdrp,Nav1.8-TRAP after paclitaxel,2.335
same,Log2FC Tgm2,Nav1.8-TRAP after paclitaxel,2.739
same,Log2FC Thoc7,Nav1.8-TRAP after paclitaxel,2.07
same,Log2FC Timm8b,Nav1.8-TRAP after paclitaxel,2.815
same,Log2FC Timm9,Nav1.8-TRAP after paclitaxel,1.838
same,Log2FC Tmem9b,Nav1.8-TRAP after paclitaxel,1.818
same,Log2FC Tmem14c,Nav1.8-TRAP after paclitaxel,1.657
same,Log2FC Tmem53,Nav1.8-TRAP after paclitaxel,2.851
same,Log2FC Tmem106b,Nav1.8-TRAP after paclitaxel,1.891
same,Log2FC Tmem120b,Nav1.8-TRAP after paclitaxel,3.033
same,Log2FC Tmem126a,Nav1.8-TRAP after paclitaxel,2.744
same,Log2FC Tmem129,Nav1.8-TRAP after paclitaxel,2.655
same,Log2FC Tnfaip8l3,Nav1.8-TRAP after paclitaxel,4.38
same,Log2FC Tonsl,Nav1.8-TRAP after paclitaxel,1.762
same,Log2FC Tpgs2,Nav1.8-TRAP after paclitaxel,2.076
same,Log2FC Tram1,Nav1.8-TRAP after paclitaxel,2.174
same,Log2FC Trap1,Nav1.8-TRAP after paclitaxel,2.447
same,Log2FC Trim11,Nav1.8-TRAP after paclitaxel,2.395
same,Log2FC Trpv1,Nav1.8-TRAP after paclitaxel,1.657
same,Log2FC Tspan17,Nav1.8-TRAP after paclitaxel,2.337
same,Log2FC Tubb4b,Nav1.8-TRAP after paclitaxel,2.111
same,Log2FC Tyro3,Nav1.8-TRAP after paclitaxel,2.927
same,Log2FC Ucp1,Nav1.8-TRAP after paclitaxel,3.795
same,Log2FC Ufsp2,Nav1.8-TRAP after paclitaxel,1.927
same,Log2FC Uqcrc2,Nav1.8-TRAP after paclitaxel,3.514
same,Log2FC Uqcrq,Nav1.8-TRAP after paclitaxel,1.825
same,Log2FC Use1,Nav1.8-TRAP after paclitaxel,1.748
same,Log2FC Usmg5,Nav1.8-TRAP after paclitaxel,1.798
same,Log2FC Vezf1,Nav1.8-TRAP after paclitaxel,1.933
same,Log2FC Wbp2,Nav1.8-TRAP after paclitaxel,1.689
same,Log2FC Wdr35,Nav1.8-TRAP after paclitaxel,2.68
same,Log2FC ll15ra,Nav1.8-TRAP after paclitaxel,3.551
same,Log2FC mt-Nd1,Nav1.8-TRAP after paclitaxel,1.74
same,normalized TPM for the Rraga mRNA,TRAP fraction,3.6±0.51
same,increase in number of normalized reads mapping to the Rraga mRNA,TRAP-seq after paclitaxel treatment,3.5 fold
same,number of genes down regulated,TRAP-seq data set,222
same,number of genes up-regulated,TRAP-seq data set,230
same,Log2FC Med6,"gene Med6, upregulated in Nav1.8-TRAP after paclitaxel",2.473
same,Log2FC Mien1,"gene Mien1, upregulated in Nav1.8-TRAP after paclitaxel",1.847
same,Log2FC Mmd,"gene Mmd, upregulated in Nav1.8-TRAP after paclitaxel",2.026
same,Log2FC Mob1a,"gene Mob1a, upregulated in Nav1.8-TRAP after paclitaxel",2.683
same,Log2FC Mob3b,"gene Mob3b, upregulated in Nav1.8-TRAP after paclitaxel",2.179
same,Log2FC Ythdf2,"gene Ythdf2, upregulated in Nav1.8-TRAP after paclitaxel",1.866
same,Log2FC Ywhaq,"gene Ywhaq, upregulated in Nav1.8-TRAP after paclitaxel",1.837
same,Log2FC Zfp386,"gene Zfp386, upregulated in Nav1.8-TRAP after paclitaxel",3.022
same,Log2FC Zfp467,"gene Zfp467, upregulated in Nav1.8-TRAP after paclitaxel",2.147
same,Log2FC Zyx,"gene Zyx, upregulated in Nav1.8-TRAP after paclitaxel",2.08
same,normalized TPM for the Rraga mRNA,input fraction,2.04±0.17
same,number of genes down-regulated,[1],1
same,number of genes up-regulated,[1],4
same,Log2FC Stx2,"mouse, in vivo",1.896
